“Also recorded” adds a separate entry of the source. Read-outs that look alike come from different tables or passages of the source.
Legend:
DENV replicon = DENV replicon cell assay (Renilla luciferase); assay type: cell-based, Dengue virus (DENV); settings: for EC50: Dengue virus; for potentiation of anti-replicon activity (in words): purine nucleobase combined with 6MMPR and/or 6MMPR prodrugs
Method: (§1) The following cell lines were used in this study: (i) Huh7 was purchased from JCRB Cell Bank (Seikisui XenoTech, Kansas City, MO, USA) and cultured in Minimum Essential Medium (MEM) supplemented with 10% fetal bovine serum (FBS), and 1× non-essential amino acids (NEAA), 1 mM sodium pyruvate, 100 IU penicillin/streptomycin per mL, 5 µg/mL plasmocin (InvivoGen, San Diego, CA, USA), 1× GlutaMAX, and (ii) BHK pD2-hRucPac-2ATG30 DENV replicon cells were a gift from M. Diamond (Washington University School of Medicine) and cultured in Dulbecco’s modified Eagle’s medium (DMEM) supplemented with 10% FBS, 100 IU penicillin/streptomycin per mL, 5 µg/mL plasmocin, 1× GlutaMAX, and 3 µg/mL puromycin (InvivoGen). (iii) A549 Ace2 TMPRSS2 cells were provided by M. Saeed (Boston University) and grown in DMEM supplemented with 10% FBS, 100 IU penicillin/streptomycin per mL, 10 mM HEPES, 1× NEAA, 1× GlutaMAX, 1 mM sodium pyruvate, 5 µg/mL plasmocin, 0.5 µg/mL puromycin, and 0.5 µg/mL blasticidin (InvivoGen).
The DENV replicon assay was performed as described. Briefly, DENV replicon cells were plated at 1500–2000 cells per well […] of a 96-well dish (Corning, USA) plate the day before use. The next day, compounds were added and cells incubated at 37 °C, 5% CO2, in a humidified incubator for three days. The cells were the washed with PBS and Complete Promega Renilla reagent was added (Promega E2720, Madison, USA, 1 µL Renilla-Glo Substrate + 99 µL Renilla-Glo Buffer + 100 µL phenol-red-free DMEM supplemented with 10% FBS per well). Cells were lysed for 10 min at room temp and 160 µL of lysate per well was transferred to wells of a 96-well opaque white plate (Falcon 353296, Corning, USA), and luminescence was measured using a BioTek (Winooski, USA) Neo2 plate reader.

[1] = Cell viability assay (MTS); assay type: cell-based; settings: hamster
Method: as §1
(§2) Cell viability assays were performed as described in [9, 10, 23]. Briefly, DENV replicon cells were plated at 1500–2000 cells per well of a 96-well dish plate (Corning, NY, USA) the day before use. The next day, compounds were added and cells incubated at 37 °C, 5% CO2, in a humidified incubator for three days. The cells were washed with phosphate-buffered saline (PBS) and incubated with the MTS reagent (Promega G5430, Madison, WI, USA) as per the manufacturer’s instructions. The plates were read at a 490 nm wavelength at 30 min intervals in a BioTek (Winooski, VT, USA) Neo2 plate reader.

DENV = system: DENV; set-up: method as in PMID 29672522; settings: cited from earlier work
[2] = system: DENV replicon cells (BHK pD2-hRucPac-2ATG30); experiment: Cell viability assay (MTS); assay type: cell-based; settings: nucleobase combined with potentiators (6MMPR and prodrugs)
Method: as §1, §2

[3] = system: ZIKV PAN1 Nluc reporter virus; experiment: ZIKV nanoluc reporter virus assay in A549 Ace2 TMPRSS2 cells; assay type: cell-based, Zika virus (ZIKV); settings: three days
Method: (§3) Figure 5 Flavivirus inhibition by the nucleobase 2-thiouracil (2SU) and the corresponding nucleoside 2-thiouridine (2SUridine). (A) Dose–response assay for inhibition of a ZIKV nanoluc reporter. Cells were inoculated with reporter virus for two hours, washed, and then compound-added. Three days later, cells were lysed, and the luciferase activity was analyzed. (B) DENV-induced cytopathic effects in compound-treated cells. Cells were inoculated with DENV for two hours, washed, and compound-added for five days. A neutral red assay was performed to determine cell viability. (C) Same as in (B), except the cells are not treated with virus. NITD = NITD008 a positive-control DENV inhibitor.
The following viruses were used in this study: (i) ZIKV PAN1 Nluc reporter virus has a nanoluc gene inserted into the viral genome as described. The virus was propagated and virus preps tittered as described. (ii) DENV type 2 New Guinea C strain (VR-1584) was obtained from ATCC (Manassas, VA, USA) and propagated in C6/36 mosquito cells as described.
The ZIKV nanoluc reporter virus assay was performed as described. Briefly, A549 Ace2 TMPRSS2 cells were plated into 96-well plates at 15,000 per well the night before use. […] The luciferase levels were measured using a Neo 2 plate reader (BioTek, Winooski, USA).

[4] = system: DENV type 2 New Guinea C strain; experiment: DENV CPE assay in Huh7 cells (neutral red); assay type: cell-based, Dengue virus (DENV); settings: five days
Method: as §3
The following viruses were used in this study: (i) ZIKV PAN1 Nluc reporter virus has a nanoluc gene inserted into the viral genome as described. The virus was propagated and virus preps tittered as described. […]
Huh7 cells were plated into 96-well plates at 10,000 cells per well the day before use. […] The compounds were removed, and the viability of the cells was measured using a neutral red staining assay. […] Neutral red destain buffer (50% ethanol, 49% H2O, and 1% glacial acetic acid) was added at 100 µL per well and the plates were read at 540 nm in a Molecular Device (San Jose, CA, USA) M5e plate reader.

[5] = 72 h, Table 3, nucleobase dose-response plus vehicle (DMSO)
[6] = 72 h, compound alone, DENV BHK replicon cells, luciferase, three days
[7] = nucleobase dose-response +6MMPR 0.065 μM
[8] = nucleobase dose-response +Prdg 1 0.09 μM
[9] = nucleobase dose-response +Prdg 2 1.5 μM
[10] = nucleobase dose-response +Prdg 3 1.4 μM
[11] = Table 3, nucleobase dose-response plus vehicle (DMSO)
[12] = compound alone, DENV replicon cells, MTS, three days

NC(=O)c1ncc[nH]c1=O [Prdg T-1105]
EC50 (DENV replicon; [5]): 15 µM | EC50 (DENV replicon; [6]): 13 µM | EC50 (DENV replicon; [7]): 11 µM | EC50 (DENV replicon; [8]): 8.3 µM | EC50 (DENV replicon; [9]): 10 µM | EC50 (DENV replicon; [10]): 9.6 µM | potentiation of anti-replicon activity (in words) (DENV replicon): strongly potentiated | CC50 at 3 days [1, 11]: > 167 µM | CC50 at 3 days [1, 12]: > 500 µM | CC50 at 3 days [1, 7]: > 167 µM | CC50 at 3 days [1, 8]: > 167 µM | CC50 at 3 days [1, 9]: > 167 µM | CC50 at 3 days [1, 10]: > 167 µM

NC(=O)c1nc(F)c[nH]c1=O [Favipiravir]
EC50 (DENV replicon; [5]): 128 µM | EC50 (DENV replicon; [6]): 114 µM | EC50 (DENV replicon; [7]): 63 µM | EC50 (DENV replicon; [8]): 51 µM | EC50 (DENV replicon; [9]): 47 µM | EC50 (DENV replicon; [10]): 46 µM | potentiation of anti-replicon activity (in words) (DENV replicon; listed as FAV): clear enhanced effect; also recorded: reduction in the EC50 value | CC50 at 3 days [1, 11]: > 500 µM | CC50 at 3 days [1, 12]: > 500 µM | CC50 at 3 days [1, 7]: > 500 µM | CC50 at 3 days [1, 8]: > 500 µM | CC50 at 3 days [1, 9]: > 500 µM | CC50 at 3 days [1, 10]: > 500 µM

CSc1ncnc2c1ncn2[C@@H]1O[C@H](CO)[C@@H](O)[C@H]1O [Prdg 6MMPR, 6-methylmercaptopurine riboside]
EC50 (DENV replicon; [6]): 0.21 µM | CC50 at 3 days [1, 12]: 0.21 µM

O=c1[nH]cc(F)c(=O)[nH]1 [5-fluorouracil]
EC50 (DENV replicon; [6]): 0.74 µM | CC50 at 3 days [1, 12]: 0.93 µM

Cc1c(-c2ccc(-c3ccccc3F)cc2)nc2ccc(F)cc2c1C(=O)O [Brequinar]
EC50 (DENV replicon; [6]): 3 µM | CC50 at 3 days [1, 12]: 4.5 µM

CC(C)C(=O)OC[C@H]1O[C@@H](n2ccc(NO)nc2=O)[C@H](O)[C@@H]1O [Molnupiravir]
EC50 (DENV replicon; [6]): 6.2 µM | CC50 at 3 days [1, 12]: 53 µM

CSc1ncnc2c1ncn2[C@@H]1O[C@H](COC(=O)N(C)C)[C@@H](O)[C@H]1O [Prdg 2]
EC50 (DENV replicon; [6]): 2.5 µM | CC50 at 3 days [1, 12]: 5.4 µM

CSc1ncnc2c1ncn2[C@@H]1O[C@H](COC(=O)C(C)C)[C@@H](OC(=O)C(C)C)[C@H]1OC(=O)C(C)C [Prdg 1]
EC50 (DENV replicon; [6]): 0.26 µM | CC50 at 3 days [1, 12]: 2.6 µM

O=c1cc[nH]c(=S)[nH]1 [Prdg 2-thiouracil, 2-thiouracil]
EC50 (DENV replicon; [6]): > 50 µM | CC50 at 3 days [1, 12]: > 50 µM

O=c1cnn([C@@H]2O[C@H](CO)[C@@H](O)[C@H]2O)c(=O)[nH]1 [Prdg 6-azauridine, 6-azauridine]
EC50 (DENV replicon; [6]): 1.9 µM | CC50 at 3 days [1, 12]: 8.8 µM

NC(=O)c1nc[nH]n1 [Ribavirin nucleobase]
EC50 (DENV replicon; [5]): 5.7 µM | EC50 (DENV replicon; [6]): 5.7 µM | EC50 (DENV replicon; [7]): 3.4 µM | EC50 (DENV replicon; [8]): 2.3 µM | EC50 (DENV replicon; [9]): 0.88 µM | EC50 (DENV replicon; [10]): 2.6 µM | potentiation of anti-replicon activity (in words) (DENV replicon): can be potentiated | anti-DENV activity (in words) (DENV): similarly strong antiviral activity | cytotoxicity (in words) (DENV): considerably less cytotoxic than ribavirin | anti-DENV activity (in words) (DENV; listed as ribavirin nucleobase): strong | cytotoxicity (in words) (DENV; listed as ribavirin nucleobase): non-cytotoxic | toxicity of combination (in words) [2]: conferred some toxicity not shown by either compound alone | CC50 at 3 days [1, 11]: > 50 µM | CC50 at 3 days [1, 12]: > 100 µM | CC50 at 3 days [1, 7]: > 50 µM | CC50 at 3 days [1, 8]: > 50 µM | CC50 at 3 days [1, 9]: > 50 µM | CC50 at 3 days [1, 10]: > 50 µM

O=c1ccn([C@@H]2O[C@H](CO)[C@@H](O)[C@H]2O)c(=S)[nH]1 [2-thiouridine]
EC50 (DENV replicon; [6]): > 50 µM | anti-replicon activity (in words) (DENV replicon; compound alone, DENV BHK replicon cell line): we did not observe activity | antiviral activity, ZIKV reporter virus replication (in words) [3]: observe antiviral activity | antiviral activity, DENV-induced cytopathic effects (in words) [4]: observe antiviral activity | CC50 at 3 days [1, 12]: > 50 µM

CSc1ncnc2c1ncn2[C@@H]1O[C@H](COC(=O)N(C)C)[C@@H](OC(=O)C(C)C)[C@H]1OC(=O)C(C)C [Prdg 3]
EC50 (DENV replicon; [6]): 2.3 µM | CC50 at 3 days [1, 12]: 2.4 µM

— PMC11767801, “Purine but Not Pyrimidine De Novo Nucleotide Biosynthesis Inhibitors Strongly Enhance the Antiviral Effect of Corresponding Nucleobases Against Dengue Virus” (Molecules, 2025)
